# Results taken from ChEMBL document CHEMBL1134960, “Benzotrithiole 2-oxide: a new family of thiol-activated DNA-cleaving functionalities” (Bioorg Med Chem Lett, 2002).
# Legend:
# Type in all cases: functional, cell-based
# [1] = Cytotoxicity against […] cancer cell lines PACA2 was determined; details: Homo sapiens
# A549 = experiment: Cytotoxicity against […] cell lines A549 was determined; details: Homo sapiens
# UMUC3 = experiment: Cytotoxicity against bladder cancer cell lines UMUC3 was determined; details: Homo sapiens
# A498 = experiment: Cytotoxicity against human kidney carcinoma cell lines A4982LM
# PC-3 = experiment: Cytotoxicity against prostate cancer cell lines PC-3 was determined; details: Homo sapiens
# [2] = Cytotoxicity against Breast cancer cell lines MDA-231 was determined; details: Homo sapiens
# MCF7 = experiment: Cytotoxicity against human breast carcinoma cell lines MCF-7
# HT-29 = experiment: Cytotoxicity against Colon cancer cell lines HT-29 was determined; details: Homo sapiens
Compound,IC50 [1],IC50 (A549),IC50 (UMUC3),IC50 (A498),IC50 (PC-3),IC50 [2],IC50 (MCF7),IC50 (HT-29)
[O-][S+]1Sc2ccccc2S1,0.982 µM,0.151 µM,0.366 µM,0.85 µM,0.0629 µM,0.627 µM,0.209 µM,0.0789 µM
COc1cccc2c1C(=O)c1c(O)c3c(c(O)c1C2=O)C[C@@](O)(C(=O)CO)C[C@@H]3O[C@H]1C[C@H](N)[C@H](O)[C@H](C)O1 [DOXORUBICIN],0.0087 µM,,0.0092 µM,0.0528 µM,,0.00195 µM,,0.0618 µM
